Reference: US12599609B2, “Methods of treating fuchs endothelial corneal dystrophy after descemetorhexis” (KOWA COMPANY, LTD., priority 2021, dated 2026)
Where a name gives a salt, the structure may show the parent alone.

Tested on: patients with FECD after descemetorhexis
Experiment: Phase 2 study of ripasudil eye drops after descemetorhexis in patients with Fuchs endothelial corneal dystrophy
Format: in vivo, human
Details: BID and QID dosing of a 0.4% formulation, topical to the eye
Description: As a condition of participating in the clinical study described in Example 3, each patient will undergo descemetorhexis of a study eye selected by the investigator for surgery. A digital photo of the study eye is taken immediately before and immediately after the descemetorhexis. The investigator will perform descemetorhexis to remove central confluent guttae, removing an area of Descemet membrane with a diameter of 4.5 to 5.5 mm. The longest diameter and the shortest diameter must be recorded. Detailed procedures for performing descemetorhexis are described in several literature references, including, for example, Macsai M S, Shiloach M. Cornea. 2019; 38:529-534, and Moloney G, Congote D G, Hirnschall N, et al. Cornea. 2020 Jul. 31. doi: 10.1097/ICO.0000000000002437. Online ahead of print.
Recommended post-descemetorhexis concomitant therapy consists of broad spectrum antibiotic (0.5% moxifloxacin hydrochloride) instilled at least once daily for 1 week and glucocorticoid (1% prednisolone acetate) instilled 3 times daily for the first 7 days, followed by once daily for the next 7 days, and terminated thereafter. The investigator may add antibiotic and glucocorticoid dosing after this 14 days as rescue therapy if the investigator judges it necessary. When more than 1 different eye drop is administered (including study drug), the study drug must be administered first, followed by any non-study eye drop (after at least 5 minutes have passed).
In this U.S. FDA approved study, the primary objective is to investigate the effect of K-321 dosed for 12 weeks on central ECD in patients with FECD after descemetorhexis. […]

C[C@H]1CNCCCN1S(=O)(=O)c1cccc2cncc(F)c12 [ripasudil hydrochloride, Ripasudil]
demonstrated particular benefit: improving best corrected visual acuity (BCVA) | improving central corneal endothelial corneal density (ECD) | reduction of corneal edema
